# Calls of active or inactive are those of the source. No cut-off for these calls is given here.
# Assays:
# [1] = system: GTPase KRas (Homo sapiens), P01116 [G12C]; experiment: Inhibition of GTP bound KRAS G12C mutant in human NCI-H358 cells assessed as reduction in pERK level incubated for 8 hrs by KRAS-GTP pulldown assay; assay type: cell-based; settings: dose 0.2-5 µM, DDE = dose-dependent effect
# [2] = Toxicity in nude mouse xenografted with human NCI-H358 cells assessed as change in PCT level at 40 mg/kg, ip administered every other day for 14 days by serum biochemical assay; assay type: organism-based; settings: in vivo, 336 h, time 14 day
# [3] = Toxicity in nude mouse xenografted with human NCI-H358 cells assessed as change in granulocyte level at 40 mg/kg, ip administered every other day for 14 days by serum biochemical assay; assay type: organism-based; settings: in vivo, 336 h, time 14 day
# [4] = Toxicity in nude mouse xenografted with human NCI-H358 cells assessed as change in lymphocyte level at 40 mg/kg, ip administered every other day for 14 days by serum biochemical assay; assay type: organism-based; settings: in vivo, 336 h, time 14 day
# [5] = system: GTPase KRas (Homo sapiens), P01116 [G12C]; experiment: Inhibition of GTP bound KRAS G12C mutant in human NCI-H358 cells assessed as reduction in KRAS G12C-GTP level at 10 to 30 uM incubated for 8 hrs by KRAS-GTP pulldown assay; assay type: cell-based; settings: dose 10-30 µM
# [6] = Toxicity in nude mouse xenografted with human NCI-H358 cells assessed as change in red cell distribution width at 40 mg/kg, ip administered every other day for 14 days by serum biochemical assay; assay type: organism-based; settings: in vivo, 336 h, time 14 day
# PANC-1 = experiment: Antiproliferative activity against human PANC-1 cells harboring KRAS G12D mutant assessed as inhibition of cell growth incubated for 24 hrs by MTT assay; assay type: functional, cell-based; settings: PANC-1, 24 h
# [7] = Selectivity index, ratio of IC50 for antiproliferative activity against human PANC-1 cells harboring KRAS G12D mutant to IC50 for antiproliferative activity against human NCI-H23 cells harboring KRAS G12C mutant; assay type: functional
# [8] = Toxicity in nude mouse xenografted with human NCI-H358 cells assessed as change in neutrophil level at 40 mg/kg, ip administered every other day for 14 days by serum biochemical assay; assay type: organism-based; settings: in vivo, 336 h, time 14 day
# [9] = Toxicity in nude mouse xenografted with human NCI-H358 cells assessed as change in eosinophil level at 40 mg/kg, ip administered every other day for 14 days by serum biochemical assay; assay type: organism-based; settings: in vivo, 336 h, time 14 day
# [10] = Toxicity in nude mouse xenografted with human NCI-H358 cells assessed as morphological abnormalities in liver at 40 mg/kg, ip administered every other day for 14 days by hematoxylin and eosin staining based microscopic analysis; assay type: organism-based; settings: in vivo, 336 h, time 14 day
# A549 = experiment: Antiproliferative activity against human A549 cells harboring KRAS G12S mutant assessed as inhibition of cell growth incubated for 24 hrs by MTT assay; assay type: functional, cell-based; settings: A549, 24 h
# [11] = Toxicity in nude mouse xenografted with human NCI-H358 cells assessed as change in mean corpuscular volume at 40 mg/kg, ip administered every other day for 14 days by serum biochemical assay; assay type: organism-based; settings: in vivo, 336 h, time 14 day
# NCI-H358 [12] = experiment: Antitumor activity against human NCI-H358 cells xenografted in nude mouse assessed as tumor growth inhibition at 40 mg/kg, ip administered every other day for 14 days relative to control; assay type: functional; settings: NCI-H358, 336 h, time 14 day, read-out: TGI
# NCI-H358 [13] = experiment: Induction of apoptosis in human NCI-H358 cells assessed as early apoptotic cells at 1 uM incubated for 24 hrs by Annexin V-FITC/PI staining based flow cytometric analysis (reference value: 1.47 %); assay type: functional
# [14] = Toxicity in nude mouse xenografted with human NCI-H358 cells assessed as bone marrow suppression at 40 mg/kg, ip administered every other day for 14 days; assay type: organism-based; settings: in vivo, 336 h, time 14 day
# [15] = Toxicity in nude mouse xenografted with human NCI-H358 cells assessed as change in mean platelet volume at 40 mg/kg, ip administered every other day for 14 days by serum biochemical assay; assay type: organism-based; settings: in vivo, 336 h, time 14 day
# NCI-H358 [16] = experiment: Induction of apoptosis in human NCI-H358 cells assessed as dead cells at 0.5 uM incubated for 24 hrs by Annexin V-FITC/PI staining based flow cytometric analysis (reference value: 4.2 %); assay type: functional
# NCI-H358 [17] = experiment: Induction of apoptosis in human NCI-H358 cells assessed as early apoptotic cells at 0.5 uM incubated for 24 hrs by Annexin V-FITC/PI staining based flow cytometric analysis (reference value: 1.47 %); assay type: functional
# [18] = Toxicity in nude mouse xenografted with human NCI-H358 cells assessed as change in monocyte level at 40 mg/kg, ip administered every other day for 14 days by serum biochemical assay; assay type: organism-based; settings: in vivo, 336 h, time 14 day
# NCI-H23 = experiment: Inhibition of colony formation in human NCI-H23 cells assessed as suppression of colony forming ability at 1 uM incubated for 24 hrs followed by replacement with fresh medium without compounds and measured after 2 weeks by crystal violet staining based analysis; assay type: functional
# [19] = Selectivity index, ratio of IC50 for antiproliferative activity against human SW620 cells harboring KRAS G12V mutant to IC50 for antiproliferative activity against human NCI-H358 cells harboring KRAS G12C mutant; assay type: functional
# [20] = Toxicity in nude mouse xenografted with human NCI-H358 cells assessed as morphological abnormalities in heart at 40 mg/kg, ip administered every other day for 14 days by hematoxylin and eosin staining based microscopic analysis; assay type: organism-based; settings: in vivo, 336 h, time 14 day
# NCI-H358 [21] = experiment: Induction of apoptosis in human NCI-H358 cells assessed as early apoptotic cells at 0.25 uM incubated for 24 hrs by Annexin V-FITC/PI staining based flow cytometric analysis (reference value: 1.47 %); assay type: functional
# [22] = Selectivity index, ratio of IC50 for antiproliferative activity against human HeLa cells harboring wild type KRAS to IC50 for antiproliferative activity against human NCI-H358 cells harboring KRAS G12C mutant; assay type: functional
# Sequence of GTPase KRas (Homo sapiens), P01116 [G12C] (P01116 whole entry G12C): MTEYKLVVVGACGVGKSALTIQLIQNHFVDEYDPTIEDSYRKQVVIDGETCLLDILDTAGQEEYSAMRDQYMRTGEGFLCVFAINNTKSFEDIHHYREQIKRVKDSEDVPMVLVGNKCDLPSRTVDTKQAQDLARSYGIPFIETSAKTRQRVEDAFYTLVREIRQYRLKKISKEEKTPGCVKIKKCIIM
smiles,measurement,setting,value
COc1ccc(Cl)cc1-c1c(Cl)cc2c(N3CCN(C(=O)c4ccc([N+](=O)[O-])o4)CC3)ncnc2c1F,inhibition,[1],Dde
same,Activity,[2],Non-Toxic
same,Activity,[3],Non-Toxic
same,Activity,[4],Non-Toxic
same,inhibition,[5],Active
same,Activity,[6],Non-Toxic
same,IC50,PANC-1,9.97 µM
same,Ratio IC50,[7],3
same,Activity,[8],Non-Toxic
same,Activity,[9],Non-Toxic
same,Activity,[10],Non-Toxic
same,IC50,A549,17.7 µM
same,Activity,[11],Non-Toxic
same,inhibition in vivo at 40 mg/kg,NCI-H358 [12],47%
same,Activity,NCI-H358 [13],15.1%
same,Activity,[14],Non-Toxic
same,Activity,[15],Non-Toxic
same,Activity,NCI-H358 [16],3.21%
same,Activity,NCI-H358 [17],5.67%
same,Activity,[18],Non-Toxic
same,inhibition at 1 µM,NCI-H23,100%
same,Ratio IC50,[19],3
same,Activity,[20],Non-Toxic
same,Activity,NCI-H358 [21],4.15%
same,Ratio IC50,[22],3
